From ChEMBL document CHEMBL6071148, “Synthesis and biological evaluation of novel 3,6- amide and thioamide substituted- 2,3,4,9-tetrahydro-1H-carbazoles for anti-cancer activity” (Eur J Med Chem, 2024)
pIC50: −log10 of the molar value. The source made the active and inactive calls. The rule behind the calls is not given here.

Tests used:
Mitochondrial membrane [1] = test: Disruption of mitochondrial membrane integrity in human MCF7 cells assessed as mitochondrial swelling by TEM analysis; type: cell membranes
MCF7 [2] = test: Antitumor activity against human MCF7 cells xenografted in chicken embryo chorioallantoic membrane assessed as change in nuclear morphology at 1.5 to 4.5 uM by H and E staining based analysis; type: functional, cell-based; conditions: dose 1.5-4.5 µM
Mitochondrial membrane [3] = test: Induction of mitochondrial membrane depolarization in human A549 cells assessed as increase in mitochondrial fission by measuring appearance of shortened mitochondria by confocal microscopic analysis; type: cell membranes
MCF7 [4] = test: Induction of apoptosis in human MCF7 cells assessed as increase in apoptotic cells incubated for 48 hrs by Annexin-V and 7-AAD staining based flow cytometric analysis (reference value: 7.53 +/- 1.16%); type: functional
Mitochondrial membrane [5] = test: Disruption of mitochondrial membrane integrity in human MCF7 cells assessed as change in mitochondrial size by TEM analysis; type: cell membranes
Mitochondrial membrane [6] = test: Induction of mitochondrial membrane depolarization in human A549 cells assessed as decrease in ratio of J-aggregates to J-monomer incubated for 24 hrs by JC-1 staining based flow cytometric analysis (reference value: 17.72 +/- 3.94%); type: cell membranes
A549 [7] = test: Induction of cell cycle arrest in human A549 cells assessed as accumulation of cells at S phase at IC50 incubated for 24 hrs by PI staining based flow cytometric analysis (reference value: 39.41 +/- 2.54%); type: functional
Mitochondrial membrane [8] = test: Disruption of mitochondrial membrane integrity in human MCF7 cells assessed as change in mitochondrial shape by TEM analysis; type: cell membranes
MCF7 [9] = test: Antitumor activity against human MCF7 cells xenografted in chicken embryo chorioallantoic membrane assessed as necrosis at 1.5 to 4.5 uM by H and E staining based analysis; type: functional, cell-based; conditions: dose 1.5-4.5 µM
Mitochondrial membrane [10] = test: Disruption of mitochondrial membrane integrity in human A549 cells assessed as change in mitochondrial internal organization by TEM analysis; type: cell membranes
[11] = Cytotoxicity against human MRC5 cells assessed as inhibition of cell proliferation incubated for 72 hrs by MTT assay; type: toxicity, cell-based
Mitochondrial membrane [12] = test: Disruption of mitochondrial membrane integrity in human MCF7 cells assessed as presence of bloated mitochondria by TEM analysis; type: cell membranes
A549 [13] = test: Induction of apoptosis in human A549 cells assessed as apoptotic rate at IC50 incubated for 24 hrs by Annexin-V and 7-AAD staining based flow cytometric analysis (reference value: 4.56 +/- 0.81%); type: functional
Mitochondrial membrane [14] = test: Disruption of mitochondrial membrane integrity in human A549 cells assessed as presence of large mitochondria by TEM analysis; type: cell membranes
A549 [15] = test: Inhibition of colony formation in human A549 cells assessed as reduction in clonogenic capacity incubated for 24 hrs by crystal violet staining based analysis; type: functional, cell-based
A549 [16] = test: Induction of cell cycle arrest in human A549 cells assessed as accumulation of cells at G2 phase at IC50 incubated for 24 hrs by PI staining based flow cytometric analysis (reference value: 23.45 +/- 1.62%); type: functional
MCF7 [17] = test: Induction of cell cycle arrest in human MCF7 cells assessed as accumulation of cells at G1 phase at IC50 incubated for 24 hrs by PI staining based flow cytometric analysis relative to control; type: functional
A549 [18] = test: Cytotoxicity against human A549 cells assessed as inhibition of cell proliferation incubated for 72 hrs by MTT assay; type: functional, cell-based; conditions: A549, 72 h
Chorioallantoic membrane = test: Anti-angiogenesis activity in chicken embryo chorioallantoic membrane assessed as reduction in blood vessel formation by imaging analysis; type: functional, tissue-based; conditions: Gallus gallus, TDE = time-dependent effect
A549 [19] = test: Induction of cell cycle arrest in human A549 cells assessed as accumulation of cells at G1 phase at IC50 incubated for 24 hrs by PI staining based flow cytometric analysis (reference value: 37.40 +/- 2.40%); type: functional
Mitochondrial membrane [20] = test: Disruption of mitochondrial membrane integrity in human A549 cells assessed as disruption of normal mitochondrial distribution by TEM analysis; type: cell membranes
Mitochondrial membrane [21] = test: Disruption of mitochondrial membrane integrity in human A549 cells assessed as change in mitochondrial shape by TEM analysis; type: cell membranes
Mitochondrial membrane [22] = test: Disruption of mitochondrial membrane integrity in human A549 cells assessed as change in mitochondrial size by TEM analysis; type: cell membranes
Mitochondrial membrane [23] = test: Disruption of mitochondrial membrane integrity in human MCF7 cells assessed as change in mitochondrial internal organization by TEM analysis; type: cell membranes
MCF7 [24] = test: Induction of cell cycle arrest in human MCF7 cells assessed as accumulation of cells at S phase at IC50 incubated for 24 hrs by PI staining based flow cytometric analysis relative to control; type: functional
Mitochondrial membrane [25] = test: Disruption of mitochondrial membrane integrity in human MCF7 cells assessed as presence of large mitochondria by TEM analysis; type: cell membranes
A549 [26] = test: Induction of cell cycle arrest in human A549 cells assessed as accumulation of cells at S phase at IC50 incubated for 48 hrs by PI staining based flow cytometric analysis (reference value: 17.825 +/- 3.70%); type: functional
Mitochondrial membrane [27] = test: Disruption of mitochondrial membrane integrity in human A549 cells assessed as organization of mtDNA nucleoids within cells by TEM analysis; type: cell membranes
Mitochondrial membrane [28] = test: Disruption of mitochondrial membrane integrity in human A549 cells assessed as mitochondrial swelling by TEM analysis; type: cell membranes
Mitochondrial membrane [29] = test: Induction of mitochondrial membrane depolarization in human A549 cells assessed as increase in mitochondrial fission by measuring appearance of circular mitochondria by confocal microscopic analysis; type: cell membranes
A549 [30] = test: Antitumor activity against human A549 cells xenografted in chicken embryo chorioallantoic membrane assessed as necrosis at 1.5 to 4.5 uM by H and E staining based analysis; type: functional, cell-based; conditions: dose 1.5-4.5 µM
Mitochondrial membrane [31] = test: Disruption of mitochondrial membrane integrity in human A549 cells assessed as presence of bloated mitochondria by TEM analysis; type: cell membranes
A549 [32] = test: Induction of DNA damage in human A549 cells assessed as gammaH2AX positive cells at IC50 incubated for 48 hrs by PI staining based flow cytometric analysis (reference value: 4.90 +/- 0.50%); type: functional
Mitochondrial membrane [33] = test: Induction of mitochondrial membrane depolarization in human MCF7 cells assessed as increase in mitochondrial fission by measuring appearance of spherical mitochondria by confocal microscopic analysis; type: cell membranes
A549 [34] = test: Antitumor activity against human A549 cells xenografted in chicken embryo chorioallantoic membrane assessed as change in nuclear morphology at 1.5 to 4.5 uM by H and E staining based analysis; type: functional, cell-based; conditions: dose 1.5-4.5 µM
HCT-116 [35] = test: Inhibition of colony formation in human HCT-116 cells assessed as reduction in clonogenic capacity incubated for 24 hrs by crystal violet staining based analysis; type: functional, cell-based
Mitochondrial membrane [36] = test: Disruption of mitochondrial membrane integrity in human MCF7 cells assessed as absence of well-developed cristae by TEM analysis; type: cell membranes
Mitochondrial membrane [37] = test: Disruption of mitochondrial membrane integrity in human A549 cells assessed as absence of well-developed cristae by TEM analysis; type: cell membranes
HCT-116 [38] = test: Cytotoxicity against human HCT-116 cells assessed as inhibition of cell proliferation incubated for 72 hrs by MTT assay; type: functional, cell-based; conditions: HCT-116, 72 h
MCF7 [39] = test: Inhibition of colony formation in human MCF7 cells assessed as reduction in clonogenic capacity incubated for 24 hrs by crystal violet staining based analysis; type: functional, cell-based

Activity (Mitochondrial membrane [1]): Active
Activity (Mitochondrial membrane [3]): Active
Activity (Mitochondrial membrane [5]): Active
Activity (Mitochondrial membrane [6]): 8.73
Activity (Mitochondrial membrane [8]): Active
Activity (Mitochondrial membrane [10]): Active
Activity (Mitochondrial membrane [12]): Active
Activity (Mitochondrial membrane [14]): Active
Activity (Mitochondrial membrane [20]): Active
Activity (Mitochondrial membrane [21]): Active
Activity (Mitochondrial membrane [22]): Active
Activity (Mitochondrial membrane [23]): Active
Activity (Mitochondrial membrane [25]): Active
Activity (Mitochondrial membrane [28]): Active
Activity (Mitochondrial membrane [29]): Active
Activity (Mitochondrial membrane [31]): Active
Activity (Mitochondrial membrane [33]): Active
Activity (Mitochondrial membrane [36]): Active
Activity (Mitochondrial membrane [37]): Active
Structure (SMILES): CC(=S)NC1CCc2[nH]c3ccc(Br)cc3c2C1 (stereo not given)
Activity (MCF7 [2]): Active
Activity (MCF7 [4]): 47.28%
Activity (A549 [7]): 27.15%
Activity (MCF7 [9]): Active
IC50 at 72 h [11]: > 50 µM
Activity (A549 [13]): 20.75%
inhibition (A549 [15]): Dose-Dependent Effect
Activity (A549 [16]): 14.3%
Activity (MCF7 [17]): 33.7%
pIC50 (A549 [18]): 5.34
Activity (Chorioallantoic membrane): Tde
Activity (A549 [19]): 31.6%
Activity (MCF7 [24]): 25.65%
Activity (A549 [26]): 30.8%
Activity (Mitochondrial membrane [27]): Active
Activity (A549 [30]): Active
Activity (A549 [32]): 11.98%
Activity (A549 [34]): Active
inhibition (HCT-116 [35]): Dose-Dependent Effect
pIC50 (HCT-116 [38]): 4.40
inhibition (MCF7 [39]): Dose-Dependent Effect
